According to patent publication US12522630B2, “MRNA cap analog and uses thereof” (HANMI FINE CHEMICAL CO., LTD., priority 2022, dated 2026):

Legend:
T7 RNA polymerase = molecular target: T1, T7 RNA polymerase (Escherichia phage T7, UniProt P00573); test: In vitro transcription of luciferase mRNA capped by co-transcriptional capping; format: biochemical; details: 4 mM cap analog, 37° C., 1 to 4 hours; compared with ^7mG(3′OMe)pppA(2′OMe)pG (set as 100%); FIG. 1
T1 construct: purchased New England Biolab #dy1670
T1 sequence (P00573 whole entry): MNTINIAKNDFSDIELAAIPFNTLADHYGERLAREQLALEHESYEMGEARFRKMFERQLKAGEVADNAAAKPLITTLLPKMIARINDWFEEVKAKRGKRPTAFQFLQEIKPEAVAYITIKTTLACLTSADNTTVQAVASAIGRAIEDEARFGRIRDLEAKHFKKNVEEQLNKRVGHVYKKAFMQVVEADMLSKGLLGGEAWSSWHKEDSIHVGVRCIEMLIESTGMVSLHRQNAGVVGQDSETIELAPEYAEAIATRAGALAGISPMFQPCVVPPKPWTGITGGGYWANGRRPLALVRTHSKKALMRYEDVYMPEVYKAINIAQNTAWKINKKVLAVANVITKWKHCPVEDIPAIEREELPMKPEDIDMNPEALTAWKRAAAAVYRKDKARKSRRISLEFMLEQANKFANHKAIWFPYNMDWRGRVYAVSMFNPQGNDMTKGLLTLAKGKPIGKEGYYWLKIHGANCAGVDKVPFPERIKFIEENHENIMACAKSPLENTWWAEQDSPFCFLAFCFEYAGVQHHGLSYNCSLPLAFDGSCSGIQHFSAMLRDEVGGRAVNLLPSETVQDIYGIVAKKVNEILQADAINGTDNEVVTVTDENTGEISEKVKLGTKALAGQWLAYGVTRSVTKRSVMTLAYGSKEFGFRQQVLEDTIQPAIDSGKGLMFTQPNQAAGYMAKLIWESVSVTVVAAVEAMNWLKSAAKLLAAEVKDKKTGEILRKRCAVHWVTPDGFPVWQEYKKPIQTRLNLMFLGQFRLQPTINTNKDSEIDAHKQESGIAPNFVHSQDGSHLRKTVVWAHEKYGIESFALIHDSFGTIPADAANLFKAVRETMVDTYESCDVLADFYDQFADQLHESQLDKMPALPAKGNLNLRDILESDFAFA
Method: For mRNA synthesis reaction using the compound of Example 8 as a cap analog, a transcription mixture including a 100 ng/ml firefly luciferase DNA transcription template (including poly A 101), 5 mM ATP, CTP, GTP, and 1-N-methyl-pseudouridine 5′-triphosphate (me^1øTP), 4 mM compound of Example 8, 10 U/ml T7 RNA polymerase (New England Biolab #dy1670), 1 U/ml RNase inhibiting protein, 0.01 U/ml inorganic pyrophosphatase, 40 mM Tris·HCl (pH 8.0), 20 mM magnesium acetate, 1 mM spermidine, and 10 mM DTT was prepared. As a comparative example, a transcription mixture was prepared by adding the TriLink's trinucleotide cap analog ^m7G(3′Ome)pppA(2′oMe)pG, instead of the compound of Example 8, under the same conditions. Each of the prepared transcription mixtures was reacted at 37° C. for 1 to 4 hours. […] Concentration of the purified mRNA was measured by using a Nanodrop spectrophotometer of Thermo Scientific, and a total amount of mRNA was calculated by multiplying the concentration and reaction volume. Then, in order to derive a mRNA in vitro transcription (IVT) yield, the total amount of mRNA synthesized using each different cap analog was divided by the input L-DNA content to quantify the IVT yield value according to the cap analog. […] This may be calculated by [Equation 1] below. […]

HEK293T cells = test: Translation of capped luciferase mRNA in HEK293T cell; format: cell-based, Human; details: compared with mRNA capped with ^7mG(3′OMe)pppA(2′OMe)pG
Method: Translation activity of luciferase mRNAs respectively prepared by in vitro transcription of the compound of Example 8 or ^7mG(3′OMe)pppA(2′OMe)pG in Experimental Example 1 was evaluated in Human embryonic kidney 293T cell lines (HEK293T). HEK293T cells were incubated in DMEM supplemented with 10% FBS and 1% penicillin/streptomycin at 37° C. under an atmosphere of 5% CO2. HEK293T cells were plated in a 6-well plate at a density of 1×10^5 cells/well. […] The cells were harvested after 1, 4, 6, 12, 24, and 48 hours from the transfection and luciferase activity was measured by using a Dual-Glo® Luciferase Assay kit (Promega catalog #E2910) according to manufacturer's recommendations: after removing the medium of the transfected cells, 75 μl of phosphate-buffered saline (PBS) was added thereto. Subsequently, 75 μl of a Dual-Glo® reagent was further added thereto, followed by mixing and incubation for 10 minutes, and then firefly luciferase luminescence was measured by using a luminometer (Perkin Elmer). Then, 75 μl of a Dual-Glo® Stop&Glo® reagent was further added thereto, followed by incubation for 10 minutes, and then Renilla luciferase luminescence was measured. A ratio of firefly luciferase luminous value to a Renilla luciferase luminous value, a control was calculated, and then luciferase activity per hour relative […] (RLU) was normalized, which is shown in FIG. 2. […]

COC1[C@@H](OP(=O)(O)OC[C@H]2O[C@@H](n3cnc4c(=O)[nH]c(N)nc43)C(O)[C@H]2O)[C@@H](COP(=O)(O)OP(=O)(O)OP(=O)(O)OC[C@H]2O[C@@H](n3c[n+](C)c4c(=O)[nH]c(N)nc43)C(O)[C@H]2OS(C)(=O)=O)O[C@H]1n1cnc2c(N)ncnc21 (stereo partly drawn) [Example 8, ^7mG(3′OMs)pppA(2′OMe)pG]
IVT yield of luciferase mRNA with the compound as cap analog (T7 RNA polymerase): almost same | total protein expression level (AUC of luciferase activity) of mRNA capped with the compound (HEK293T cells; 1 hour to 48 hours after transfection, FIG. 3): higher total protein expression level | luciferase activity of mRNA capped with the compound (HEK293T cells; from 6 hours to 12 hours after transfection, FIG. 2): far higher luciferase activity
